Common to all, as to type: cell-based, Staphylococcus aureus
The subject of one experiment is Staph aureus 2811. Description: MIC, microtiter broth dilution (CLSI M7-A7), Assay 1, Table 12 column D, no serum. The following applies: Staph aureus 2811, Assay 1, no serum. A digest of the protocol:
(§1)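 Broth microdilution in microtiter trays per CLSI M7-A7, interpreted per M100-S16; MIC (μg/ml) is the lowest concentration preventing visible growth. Serum condition used Mueller-Hinton Broth with 50% pooled inactivated human serum. Repeated runs reported as geometric mean.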
(In general: Dilution methods test growth across graded concentrations, often in twofold steps.)

The test system of experiment [1] is Staph aureus 1031. Nature of the experiment: MIC in Mueller-Hinton Broth with 50% pooled inactivated human serum, Assay 2, Table 12 column G. The following applies: for MIC: Staphylococcus aureus, 1031, Staph aureus 1031, Assay 2, 50% human serum. As to the method: (§2) The assays described herein include a panel of bacterial isolates of Staphylococcus aureus. Assay 1 comprises the strains noted in Columns A through E, and Assay 2 comprises the strains noted in Columns F through H. The assays are performed in microtiter trays according to Methods for Dilution Antimicrobial Susceptibility Tests for Bacteria that Grow Aerobically; Approved Standard-7th edition (M7-A7) and interpreted according to the Performance Standards for Antimicrobial Susceptibility Testing; 16th Informational Supplement (M100-S16) published by Clinical Laboratory Standards Institute (CLSI). The antibacterial activity is presented in the form of a minimum inhibitory concentration (MIC) value in μg/ml format. The MIC value represents the lowest concentration of drug measured which prevented macroscopically visible growth under the conditions and specific doses tested. The compounds were initially dissolved in DMSO as 30 mM stocks and diluted accordingly to adjust to a concentration of 10 mg/ml or the compounds were dissolved in DMSO at a concentration of 10 mg/ml. For assessment of activity in the presence of human serum, S. aureus 1146 and S. aureus 1031 were inoculated into Mueller-Hinton Broth with 50% pooled inactivated human serum. In some cases, compounds were tested more than once in a particular assay. Where noted, the MIC value shown in Table 12 represents the geometric mean of the data from multiple runs.
(§3) It should be understood that the data in columns A-H represents MIC data in μg/ml and the notation “<=” means ‘less than or equal to’.

For experiment [2], the system named is Staph aureus 1031. Description: MIC, microtiter broth dilution (CLSI M7-A7), Assay 2, Table 12 column F, no serum. The following applies: for MIC: Staphylococcus aureus, 1031, Staph aureus 1031, Assay 2, no serum. The method, then:
as §2, §3

The subject of another experiment is Staph aureus 2810. Description: MIC, microtiter broth dilution (CLSI M7-A7), Assay 2, Table 12 column H, no serum. The following applies: for MIC: Staphylococcus aureus, 2810, Staph aureus 2810, Assay 2, no serum. As to the method: as §2, §3
In experiment [3] the test system is Staph aureus 1146. Nature of the experiment: MIC in Mueller-Hinton Broth with 50% pooled inactivated human serum, Assay 1, Table 12. The settings on record: Staph aureus 1146, Assay 1, 50% human serum. A digest of the protocol:
as §1

Experiment [4] deals with Staph aureus 1146. Nature of the experiment: MIC, microtiter broth dilution (CLSI M7-A7), Assay 1, Table 12 column B, no serum. The following applies: Staph aureus 1146, Assay 1, no serum. The procedure, abridged:
as §1

The term MIC denotes the least concentration at which growth counts as inhibited.

Values after ≈ are worked out from the molar mass of the structure shown. Values joined by “and” are separate entries in the source; they are usually repeats but may differ in a detail not shown here. Identical values can stand only once. A value given as a limit tells only on which side of the number the result lay.

As to “4-{[2-(3-chloro-6-methoxyquinolin-4-yl)ethyl]mino}-1-(3-phenylcyclobutyl) azepane-4-carboxylic acid [Example 152]”, the “MIC, column D” value in the experiment with Staph aureus 2811 is “<=.0625 μg/ml”. In the experiment on Staph aureus 1031 [1] (Staph aureus 1031, Assay 2, 50% human serum), the “MIC, column G” value was determined as 2 µg/mL. In addition, the “MIC, column F” value against Staph aureus 1031 [2] (Staph aureus 1031, Assay 2, no serum) was “<=.0625 μg/ml”. The “MIC, column H” value against Staph aureus 2810 (Staph aureus 2810, Assay 2, no serum) was 0.125 µg/mL. The “MIC, column C” value with Staph aureus 1146 [3] was 1 µg/mL and 2 µg/mL. In addition, in the experiment on Staph aureus 1146 [4], the “MIC, column B” value came out at 0.125 µg/mL.
As to `COC(=O)[C@H]1CN(C2Cc3ccccc3C2)CC[C@H]1CCC(O)c1ccnc2ccc(OC)cc12` (stereo partly drawn) [Example 78, (3R,4R)-methyl 1-(2,3-dihydro-1H-inden-2-yl)-4-(3-hydroxy-3-(6-methoxyquinolin-4-yl)propyl)piperidine-3-carboxylate], the MIC against Staph aureus 1031 [1], in the experiment on Staph aureus 1031 [2] and in the experiment with Staph aureus 2810 was more than 64 µg/mL throughout.
With `COc1ccc2nccc(C(O)CC[C@@H]3CCN(C4Cc5ccccc5C4)C[C@@H]3C(=O)O)c2c1` (stereo partly drawn) [Example 79, (3R,4R)-1-(2,3-dihydro-1H-inden-2-yl)-4-(3-hydroxy-3-(6-methoxyquinolin-4-yl)propyl)piperidine-3-carboxylic acid], the MIC in the experiment on Staph aureus 1031 [1] stood at 64 µg/mL (≈ 139 µM); in the experiment with Staph aureus 1031 [2], 8 µg/mL (≈ 17.4 µM); against Staph aureus 2810 it was 8 µg/mL (≈ 17.4 µM).
As to `COc1ccc2nccc(C(O)CC[C@@H]3CCN(C4Cc5ccc(Cl)cc5C4)C[C@@H]3C(=O)O)c2c1` (stereo partly drawn) [Example 80, (3R,4R)-1-(5-chloro-2,3-dihydro-1H-inden-2-yl)-4-(3-hydroxy-3-(6-methoxyquinolin-4-yl)propyl)piperidine-3-carboxylic acid], the values for the MIC in the experiment on Staph aureus 1031 [1], against Staph aureus 1031 [2] and with Staph aureus 2810 were more than 64 µg/mL, 1 µg/mL (≈ 2.02 µM) and 1 µg/mL (≈ 2.02 µM), respectively.
With `COc1ccc2nccc(C(O)CC[C@@H]3CCN(C4Cc5cccc(Br)c5C4)C[C@@H]3C(=O)O)c2c1` (stereo partly drawn) [Example 81, (3R,4R)-1-(4-bromo-2,3-dihydro-1H-inden-2-yl)-4-(3-hydroxy-3-(6-methoxyquinolin-4-yl)propyl)piperidine-3-carboxylic acid], the MIC with Staph aureus 1031 [1] is more than 64 µg/mL; with Staph aureus 1031 [2] it was 4 µg/mL (≈ 7.41 µM); in the experiment on Staph aureus 2810, 4 µg/mL (≈ 7.41 µM).
Turning to `COC(=O)[C@H]1CN(CC2Cc3ccccc3C2)CC[C@H]1CCC(O)c1ccnc2ccc(OC)cc12` (stereo partly drawn) [Example 82, (3R,4R)-methyl 1-((2,3-dihydro-1H-inden-2-yl)methyl)-4-(3-hydroxy-3-(6-methoxyquinolin-4-yl)propyl)piperidine-3-carboxylate], the MIC amounted to 32 µg/mL (≈ 65.5 µM) with Staph aureus 1031 [1], 8 µg/mL (≈ 16.4 µM) against Staph aureus 1031 [2] and 16 µg/mL (≈ 32.7 µM) in the experiment with Staph aureus 2810.
As for `COc1ccc2nccc(C(O)CC[C@@H]3CCN(CC4Cc5ccccc5C4)C[C@@H]3C(=O)O)c2c1` (stereo partly drawn) [Example 83, (3R,4R)-1-((2,3-dihydro-1H-inden-2-yl)methyl)-4-(3-hydroxy-3-(6-methoxyquinolin-4-yl)propyl)piperidine-3-carboxylic acid], the MIC in the experiment on Staph aureus 1031 [1] was determined as 64 µg/mL (≈ 135 µM); against Staph aureus 1031 [2] it was 8 µg/mL (≈ 16.9 µM); against Staph aureus 2810 it was 8 µg/mL (≈ 16.9 µM).
As to `COc1ccc2nccc(C(O)CC[C@@H]3CCN(CC4(O)Cc5ccccc5C4)C[C@@H]3C(=O)O)c2c1` (stereo partly drawn) [Example 84, (3R,4R)-1-((2-hydroxy-2,3-dihydro-1H-inden-2-yl)methyl)-4-(3-hydroxy-3-(6-methoxyquinolin-4-yl)propyl)piperidine-3-carboxylic acid], the MIC against Staph aureus 1031 [1], in the experiment with Staph aureus 1031 [2] and with Staph aureus 2810 was more than 64 µg/mL throughout.
For `COc1ccc2nccc(C(O)CC[C@@H]3CCN(CC4CCc5nc(C(C)C)ncc5C4)C[C@@H]3C(=O)O)c2c1` (stereo partly drawn) [Example 116, (3R,4R)-4-[3-hydroxy-3-(6-methoxyquinolin-4-yl)propyl]-1-[(2-isopropyl-5,6,7,8-tetrahydroquinazolin-6-yl)methyl]piperidine-3-carboxylic acid], the MIC in the experiment with Staph aureus 1031 [1], in the experiment on Staph aureus 1031 [2] and against Staph aureus 2810 was more than 64 µg/mL in each case.
As to `COc1ccc2nccc(C(O)CC[C@@H]3CCN(CC4CCc5nc(CC6CC6)ncc5C4)C[C@@H]3C(=O)O)c2c1` (stereo partly drawn) [Example 117, (3R,4R)-1-{[2-(cyclopropylmethyl)-5,6,7,8-tetrahydroquinazolin-6-yl]methyl}-4-[3-hydroxy-3-(6-methoxyquinolin-4-yl)propyl]piperidine-3-carboxylic acid], the MIC against Staph aureus 1031 [1], against Staph aureus 1031 [2] and against Staph aureus 2810 was more than 64 µg/mL throughout.
Take `COc1ccc2nccc(C(O)CC[C@@H]3CCN(CC4CCc5nc(-c6ccccc6)ncc5C4)C[C@@H]3C(=O)O)c2c1` (stereo partly drawn) [Example 118, (3R,4R)-4-[3-hydroxy-3-(6-methoxyquinolin-4-yl)propyl]-1-[(2-phenyl-5,6,7,8-tetrahydroquinazolin-6-yl)methyl]piperidine-3-carboxylic acid]: the MIC against Staph aureus 1031 [1], in the experiment with Staph aureus 1031 [2] and in the experiment with Staph aureus 2810 was more than 64 µg/mL in each case.
As for `COc1ccc2nccc(C(O)CC[C@@H]3CCN(CC4CCc5nc(-c6cnccn6)ncc5C4)C[C@@H]3C(=O)O)c2c1` (stereo partly drawn) [Example 119, (3R,4R)-4-[3-hydroxy-3-(6-methoxyquinolin-4-yl)propyl]-1-[(2-pyrazin-2-yl-5,6,7,8-tetrahydroquinazolin-6-yl)methyl]piperidine-3-carboxylic acid], the MIC with Staph aureus 1031 [1], against Staph aureus 1031 [2] and against Staph aureus 2810 was more than 64 µg/mL in each case.
Turning to `COc1ccc2nccc(C(O)CC[C@@H]3CCN(CC4CCc5nc(N6CCCCC6)ncc5C4)C[C@@H]3C(=O)O)c2c1` (stereo partly drawn) [Example 120, (3R,4R)-4-[3-hydroxy-3-(6-methoxyquinolin-4-yl)propyl]-1-[(2-piperidin-1-yl-5,6,7,8-tetrahydroquinazolin-6-yl)methyl]piperidine-3-carboxylic acid], the MIC against Staph aureus 1031 [1], in the experiment on Staph aureus 1031 [2] and against Staph aureus 2810 was more than 64 µg/mL in each case.
For `COC(=O)[C@H]1CN(C2CN(c3ccccn3)C2)CC[C@H]1CCC(O)c1ccnc2ccc(OC)cc12` (stereo partly drawn) [Example 124, methyl (3R,4R)-4-[3-hydroxy-3-(6-methoxyquinolin-4-yl)propyl]-1-(1-pyridin-2-ylazetidin-3-yl)piperidine-3-carboxylate], the MIC against Staph aureus 1031 [1], with Staph aureus 1031 [2] and in the experiment on Staph aureus 2810 was more than 64 µg/mL throughout.
For `COc1ccc2nccc(C(O)CC[C@@H]3CCN(C4CN(c5ccccn5)C4)C[C@@H]3C(=O)O)c2c1` (stereo partly drawn) [Example 125, (3R,4R)-4-[3-hydroxy-3-(6-methoxyquinolin-4-yl)propyl]-1-(1-pyridin-2-ylazetidin-3-yl)piperidine-3-carboxylic acid], the MIC is more than 64 µg/mL in the experiment with Staph aureus 1031 [1], more than 64 µg/mL against Staph aureus 1031 [2] and 32 µg/mL (≈ 67.1 µM) against Staph aureus 2810.
As for `COc1ccc2ncc(Cl)c(CCNC3(C(=O)O)CCCN(CC4CCc5nc(C)ncc5C4)CC3)c2c1` (stereo not drawn) [Example 158, 4-{[2-(3-chloro-6-methoxyquinolin-4-yl)ethyl]amino}-1-[(2-methyl-5,6,7,8-tetra hydroquinazolin-6-yl)methyl]azepane-4-carboxylic acid], the MIC was more than 64 µg/mL against Staph aureus 1031 [1], 32 µg/mL (≈ 59.5 µM) against Staph aureus 1031 [2] and 32 µg/mL (≈ 59.5 µM) against Staph aureus 2810.
Take `COc1ccc2nccc([C@@H](O)CNC3(C(=O)O)CCCN(C4CC(c5ccccc5)C4)CC3)c2n1` (stereo partly drawn) [Example 159, 4-{[(2R)-2-hydroxy-2-(6-methoxy-1,5-naphthyridin-4-yl)ethyl]amino}1-(3-phenylcyclobutyl)azepane-4-carboxylic acid]: the MIC in the experiment with Staph aureus 1031 [1] is 16 µg/mL (≈ 32.6 µM); against Staph aureus 1031 [2], 4 µg/mL (≈ 8.15 µM); against Staph aureus 2810 it was 4 µg/mL (≈ 8.15 µM).
Take `COC(=O)C1(NC[C@H](O)c2ccnc3ccc(OC)nc23)CCCN(C2CC(c3ccccc3)C2)CC1` (stereo partly drawn) [Example 160, methyl 4-((R)-2-hydroxy-2-(6-methoxy-1,5-naphthyridin-4-yl)ethylamino)-1-(3-phenylcyclobutyl)azepane-4-carboxylate]: the values for the MIC in the experiment on Staph aureus 1031 [1], in the experiment with Staph aureus 1031 [2] and against Staph aureus 2810 were 4 µg/mL (≈ 7.93 µM), 2 µg/mL (≈ 3.96 µM) and 2 µg/mL (≈ 3.96 µM), respectively.
